Test results reported in publication PMC10471769, “Biochemical analysis of Komagataella phaffii oxidative folding proposes novel regulatory mechanisms of disulfide bond formation in yeast” (Scientific Reports, 2023).

What was measured:
[1] = molecular target: T1, K. phaffii Ero1-Pdi1 complex (wild type) (Komagataella phaffii, UniProt F2QNN1); experiment: absorbance at […] nm after reflavination and size exclusion; assay type: binding; settings: stoichiometry, no affinity constant; 1:2 molar excess FAD+ overnight on ice, phosphate pH 7.0
T1 construct: 1:1 disulfide-linked heterodimer (Ero1 Cys136-Pdi1 Cys404); His-tagged Ero1 1-384 core without C-terminal amphipathic helix (45 kDa) plus Pdi1 (56 kDa); E. coli BL21(DE3) with customized CyDisCo; with Protein disulfide-isomerase
T1 sequence (F2QNN1 entry or part of it): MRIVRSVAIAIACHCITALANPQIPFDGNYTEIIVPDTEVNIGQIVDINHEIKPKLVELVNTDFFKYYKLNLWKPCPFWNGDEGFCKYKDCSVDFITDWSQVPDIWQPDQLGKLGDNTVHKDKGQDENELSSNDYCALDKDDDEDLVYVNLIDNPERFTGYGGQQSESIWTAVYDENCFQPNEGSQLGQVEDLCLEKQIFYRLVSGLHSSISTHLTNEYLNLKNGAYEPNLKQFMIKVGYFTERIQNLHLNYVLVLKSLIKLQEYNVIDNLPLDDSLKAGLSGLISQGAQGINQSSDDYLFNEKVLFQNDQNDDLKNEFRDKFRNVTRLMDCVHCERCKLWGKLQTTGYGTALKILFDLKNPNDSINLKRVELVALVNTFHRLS
T1 sequence (F2QY05 entry or part of it, further chain): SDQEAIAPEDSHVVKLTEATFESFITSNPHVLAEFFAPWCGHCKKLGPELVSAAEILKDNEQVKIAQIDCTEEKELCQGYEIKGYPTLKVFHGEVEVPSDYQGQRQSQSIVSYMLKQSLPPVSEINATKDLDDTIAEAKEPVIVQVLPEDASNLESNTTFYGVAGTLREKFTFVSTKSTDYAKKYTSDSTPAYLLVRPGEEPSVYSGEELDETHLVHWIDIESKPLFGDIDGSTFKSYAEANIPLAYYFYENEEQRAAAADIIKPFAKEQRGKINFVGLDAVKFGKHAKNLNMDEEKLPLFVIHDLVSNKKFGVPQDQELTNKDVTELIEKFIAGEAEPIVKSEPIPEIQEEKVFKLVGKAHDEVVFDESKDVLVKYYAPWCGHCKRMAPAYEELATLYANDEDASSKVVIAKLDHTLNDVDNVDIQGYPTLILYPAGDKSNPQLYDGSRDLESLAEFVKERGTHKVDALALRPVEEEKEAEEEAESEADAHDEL

[2] = molecular target: T2, monomeric K. phaffii Ero1 (Komagataella phaffii, UniProt F2QNN1, C136A); experiment: as above; assay type: binding; settings: stoichiometry, no affinity constant; 1:2 molar excess FAD+ overnight on ice, phosphate pH 7.0
T2 construct: His-tagged 1-384 active core, C-terminal amphipathic helix removed, monomer; E. coli BL21(DE3) with CyDisCo
T2 sequence (F2QNN1 entry or part of it C136A): as the sequence (F2QNN1 entry or part of it) above, with C136A counted along it

FAD+ molecules per complex [1]: 0.93 ± 0.05 molecules per complex
FAD+ molecules per monomer [2]: 0.85 ± 0.04 molecules per monomer
Compound: Cc1cc2nc3c(=O)[nH]c(=O)nc-3n(C[C@H](O)[C@H](O)[C@H](O)COP(=O)(O)OP(=O)(O)OC[C@H]3O[C@@H](n4cnc5c(N)ncnc54)[C@H](O)[C@@H]3O)c2cc1C [FAD+]
